Experimental data reported in patent US9498532B2, “Antibody drug conjugates” (Novartis AG, priority 2013, dated 2016).

Tested on: CHGA119 primary gastric tumor xenograft
Assay: Anti-tumor activity and host response in CHGA119 patient-derived xenograft
Settings: CHGA119-tumor bearing mice, ADCs 10 mg/kg i.v. q2wk, BGJ398 10 mg/kg p.o. qd
Source text: In these studies, CHGA119 tumor fragments in size of 2 mm×2 mm×2 mm were implanted subcutaneously (s.c.) into female nu/nu athymic mice. […] Tumors were calipered twice a week.

For `CCN1CCN(c2ccc(Nc3cc(N(C)C(=O)Nc4c(Cl)c(OC)cc(OC)c4Cl)ncn3)cc2)CC1` [BGJ398, 3-(2,6-Dichloro-3,5-dimethoxy-phenyl)-1-{6-[4-(4-ethyl-piperazin-1-yl)-phenylamino]-pyrimidin-4-yl}-1-methyl-urea], the “Host response % body weight change (mean ± SEM)” value was −3.7 ± 3%, the “Host response Mean body weight change (g ± SEM)” value was -0.8 ± 0.7 g and the “Mean tumor volume change (mm^3 ± SEM)” value was 386 ± 169 mm^3. For the same compound, the “Survival (survivors/total)” value was 8/8 and the “Tumor response T/C (%)” value (after 5 weeks of treatment) was 33%.
